The data set is described as follows: solvent given as SMILES.
[1] abbreviates: in c1cc(-n2c3ccccc3c3ccccc32)nc(-n2c3ccccc3c3ccccc32)c1.

SMILES strings stand for the structures. Several values for one entry are separate records, joined by “and”; a condition that tells them apart may be missing. Identical values can stand only once.

On to `CCn1c2ccccc2c2cc(/C=C/c3cc(/C=C/c4ccc5c(c4)c4ccccc4n5CC)[n+](CCCS(=O)(=O)[O-])c(/C=C/c4ccc5c(c4)c4ccccc4n5CC)c3)ccc21`, for which the emission maximum runs as follows: (in C1CCOC1) 605 nm; (in CC#N) 611 nm; (in CC(C)=O) 610 nm; (in Cc1ccccc1) 599 nm.

With `CN(C)c1ccc2c(c1)C(=O)NC2=O`, the emission maximum is given as 459 nm (in C1CCOC1); 457 nm (in C1COCCO1); 490 nm (in CC#N); 516 nm (in CC(C)(C)O); 483 nm (in CC(C)=O); 523 nm (in CC(C)O). For the same molecule, the emission maximum was 440 nm (in CCOCC), 534 nm (in CO) and 562 nm (in O).

As to `CC1(C)c2ccccc2N(c2ccc(-c3ccc(C#N)c(C#N)n3)cc2)c2ccccc21`, the emission maximum runs as follows: (in Cc1ccccc1) 562 nm; (in N#Cc1ccc2c(c1)c1ccccc1n2-c1cccc(-n2c3ccccc3c3ccccc32)c1) 550 nm.

For the setting “in ClC(Cl)Cl”, `O=C1c2ccc3c4c(-c5ccccc5)cc5c6c(ccc(c7c(-c8ccccc8)cc(c2c37)C(=O)N1C1CCCCC1)c64)C(=O)N(C1CCCCC1)C5=O` yielded an emission maximum of 651 nm.

For `CN(C)c1ccc(-c2nc3nc4ccccc4nc3n2-c2ccccc2)cc1`, for the setting “in CC#N”, the emission maximum was 528 nm.

For the molecule `Fc1ccc(C#Cc2nc(C#Cc3ccc(F)cc3)c(C#Cc3ccc(F)cc3)c(C#Cc3ccc(F)cc3)c2C#Cc2ccc(F)cc2)cc1`, the emission maximum (in ClCCl) came to 436 nm.

For the setting “in CO”, `COc1ccc(-c2nc(-c3cccc(OC)c3)[nH]c2-c2ccc(OC)cc2)cc1` had an emission maximum of 399 nm.

`CCCCCCCCCCCCc1sc(CCCCCCCCCCCC)c2c3ccsc3c3sccc3c12` returned an emission maximum (in ClC(Cl)Cl) of 425 nm.

Take `COC(=O)C1=C(C(=O)OC)C2=C[C@H]3c4ccccc4[C@]2(S1)c1ccccc13`: the emission maximum is given as 477 nm (in C1CCOC1); 489 nm (in CC#N); 465 nm (in CCCCCC); 473 nm (in CCOCC); 500 nm (in CO); 488 nm (in ClCCl). This molecule returned an emission maximum (in c1ccccc1) of 477 nm.

Take `CS1(C)C(/C=C/C2=C(c3ccc(C(=O)O)cc3)C(=C/C=C3/N(CCCCS(=O)(=O)[O-])c4ccccc4S3(C)C)/CCC2)=[N+](CCCCS(=O)(=O)[O-])c2ccccc21`: under “in CO”, the emission maximum turned out to be 813 nm.

In the case of `CN(C)c1ccc2nc(-c3ccc(/C=N/c4ccccc4)cc3)sc2c1`, the emission maximum amounted to 445 nm (in C1CCCCC1), 610 nm (in CC#N), 639 nm (in CO) and 534 nm (in ClC(Cl)Cl).

As for `CCCCCCc1cc2/c(=C(\C#N)C(=O)OC)s/c(=c3/s/c(=C(/C#N)C(=O)OC)c4cc(CCCCCC)sc34)c2s1`, where the note is “in Cc1ccccc1”, the emission maximum is on record as 605 nm.

The molecule `CCOC(=O)c1sc(SC)c2c(=O)n(C)nnc12` had an emission maximum (in C1CCOC1) of 470 nm; an emission maximum (in CC#N) of 484 nm; an emission maximum (in CCO) of 501 nm; an emission maximum (in CN(C)C=O) of 487 nm; an emission maximum (in CO) of 508 nm; an emission maximum (in CS(C)=O) of 501 nm.

In turn, `CCOc1cccc2c1O[B-](F)(F)[n+]1c3c(c4c(c1-2)-c1ccccc1CC4)-c1ccccc1CC3` registered an emission maximum (in ClCCl) of 483 nm.

On to `O=C([O-])c1ccccc1-c1c2cc(I)c(=O)c(I)c-2oc2c(I)c([O-])c(I)cc12`, for which the emission maximum stood at 557 nm (in CC(C)O), 551 nm (in CCO), 545 nm (in CO) and 534 nm (in O).

Take `Cc1nc2c(ccc3c2sc(/C=C/c2ccc(-n4c5ccccc5c5ccccc54)cc2)[n+]3C)s1`: the emission maximum amounted to 607 nm (in CO) and 638 nm (in ClC(Cl)Cl).

On to `COc1ccc2ccccc2c1C1=CC(c2ccccc2)=C(c2ccccc2)C1`, for which the emission maximum (in ClCCl) is 471 nm.

Molecule `CCOC(=O)c1cc(C(=O)OCC)c2ccc(C)cc2n1` came in with an emission maximum (in CCO) of 422 nm.

`COc1ccc(C2=C3C(/C=C/c4cc(OC)c(OC)c(OC)c4)=C(C=O)C(C)=[N+]3[B-](F)(F)n3c(/C=C/c4cc(OC)c(OC)c(OC)c4)c(C=O)c(C=Cc4cc(OC)c(OC)c(OC)c4)c32)cc1` came in with an emission maximum (in ClCCl) of 686 nm.

With `O=C(c1ccccc1)c1ccc(-n2c3ccccc3c3c2c2ccccc2n3-c2ccccc2)cc1`, the emission maximum (in Cc1ccccc1) amounted to 520 nm.

For the molecule `CCCCN1C(=O)C(=CC=C2N(CCCC)c3ccccc3N2CCCC)C(=O)N(CCCC)C1=S`, the emission maximum by setting is: (in CCCCCC) 488 nm; (in CCO) 478 nm; (in CN(C)C=O) 482 nm; (in Cc1ccccc1) 490 nm; (in ClC(Cl)Cl) 489 nm; (in ClCCl) 486 nm.

Under “in C1CCOC1”, `Cc1cc(C)c([B-]2(c3c(C)cc(C)cc3C)[O+]=P(c3ccccc3)(c3ccccc3)c3cc(-c4ccc(C(C)(C)C)cc4)sc3-c3sc(-c4ccc(C(C)(C)C)cc4)cc32)c(C)c1` returned an emission maximum of 498 nm.

With `Cc1c(C)n2c(COC(=O)CNC(=O)OC(C)(C)C)c(C)c(=O)n2c1=O`, the emission maximum (in CCO) is listed as 459 nm.

In the case of `Cc1cc(C)c(N(c2ccccc2)c2ccc(S(=O)(=O)c3ccc(S(=O)(=O)c4ccc(N(c5ccccc5)c5c(C)cc(C)cc5C)cc4)cc3)cc2)c(C)c1`, the emission maximum is, setting by setting: (in Cc1ccccc1) 450 nm; under setting [1], 452.12 nm.

Molecule `COc1cc2c(cc1OC)C1=C3C(=O)N4C=Cc5cc(OC)c(OC)cc5C4=C3C(=O)N1C=C2` yielded an emission maximum (in CN(C)C=O) of 602 nm and an emission maximum (in ClC(Cl)Cl) of 597 nm.

In turn, `COc1ccc(C2=[N+]3C(=Nc4c(-c5ccccc5-c5ccc(C(C)(C)C)cc5)cc(-c5ccc(OC)cc5)n4[B-]3(F)F)c3c2c2cc(C(C)(C)C)ccc2c2ccccc32)cc1` displayed an emission maximum (in Cc1ccccc1) of 723 nm.

Consider `CCn1c2sccc2c2c3nsnc3c3c4ccsc4n(CC)c3c21`, for which the emission maximum runs as follows: (in C1CCOC1) 521 nm; (in CCOC(C)=O) 521 nm; (in CN(C)C=O) 552 nm; (in Cc1ccccc1) 508 nm; (in ClCCl) 548 nm.

The molecule `c1ccc(-c2cc(-c3nnc(-c4ccc(N5c6ccccc6Oc6ccccc65)cc4)o3)c(-c3ccccc3)c(-c3ccccc3)c2-c2ccccc2)cc1` registered an emission maximum (in Cc1ccccc1) of 495 nm and an emission maximum (in c1ccc(-n2c(-c3c(-n4c5ccccc5c5ccccc54)cccc3-n3c4ccccc4c4ccccc43)nc3ccccc32)cc1) of 495 nm.

For the molecule `CC(C)[Si](C#Cc1c2cc3ccccc3cc2c(C#C[Si](C(C)C)(C(C)C)C(C)C)c2nc3cc4c(cc3nc12)C1c2ccccc2C4c2ccccc21)(C(C)C)C(C)C`, the emission maximum (in CCCCCC) was determined as 682 nm and the emission maximum (in ClCCl) was found to be 718 nm.

On to `CCn1c2cc(-c3cccs3)ccc2c2ccc(-c3cccs3)cc21`, for which, where the note is “in ClCCl”, the emission maximum is 391 nm.

Molecule `Cc1cc(C)c(B(c2cc(C#Cc3ccccc3)sc2-c2sc(C#Cc3ccccc3)cc2P(=O)(c2ccccc2)c2ccccc2)c2c(C)cc(C)cc2C)c(C)c1` came in with an emission maximum (in CO) of 560 nm.

Consider `CCCCOc1ccc(-c2oc3c(-c4ccc(OCCCC)cc4)c4n(c3c2-c2ccc(OCCCC)cc2)[B-](F)(F)[N+]2=Cc3c(-c5ccc(OCCCC)cc5)c5oc(-c6ccc(OCCCC)cc6)c(-c6ccc(OCCCC)cc6)c5n3[B-](F)(F)[N+]2=C4)cc1`, for which the emission maximum turned out to be 663 nm (in C1CCOC1); 672 nm (in CN(C)C=O); 676 nm (in CS(C)=O); 668 nm (in Cc1ccccc1); 666 nm (in ClC(Cl)Cl); 667 nm (in ClCCl).

With `c1ccc(-c2nc(-c3ccc(-c4nc(-c5ccccc5)c(-c5ccccc5)[nH]4)cc3)[nH]c2-c2ccccc2)cc1`, the emission maximum by setting is: (in C1CCOC1) 421 nm; (in CC#N) 423.5 nm and 424 nm; (in CC(=O)O) 482 nm; (in CC(C)=O) 420 nm; (in CCOC(C)=O) 420 nm; (in CCOCC) 419 nm. The emission maximum came to 417 nm (in CO), 410 nm (in CS(C)=O) and 437 nm (in ClC(Cl)Cl).

As to `CCOC(=O)c1ccccc1-c1c2ccc(=[N+](CC)CC)cc-2oc2c1c(=O)oc1cc3c(cc12)CCCN3C`, the emission maximum reads like this: (in CCO) 658 nm; (in ClC(Cl)Cl) 647 nm; (in O) 666 nm.

Regarding `CC(C)(C)c1cccc2c([O-])cccc12`, the emission maximum (in O) was found to be 443 nm.

With `OC1(c2ccc(-c3cccs3)s2)CCC(c2ccccc2)CC1` (stereo not drawn), the emission maximum by setting is: (in C1CCOC1) 471 nm; (in CC#N) 468 nm; (in CCCCCC) 464 nm; (in CCO) 460 nm; (in OCCOCCO) 384 nm; (in c1ccncc1) 385 nm.

For the molecule `CC(C)(C)c1ccc(N(c2ccc(S(=O)(=O)c3ccc(S(=O)(=O)c4ccc(N(c5ccc(C(C)(C)C)cc5)c5ccccc5C(C)(C)C)cc4)cc3)cc2)c2ccccc2C(C)(C)C)cc1`, the emission maximum was 454 nm (in Cc1ccccc1) and 463.53 nm under setting [1].

As for `C[Si]1(C)c2ccc(-c3cccs3)cc2C=Cc2cc(-c3cccs3)ccc21`, the emission maximum (in ClCCl) was 373 nm.

The molecule `Cc1cc(C)c(C)c(B(c2c(C)c(C)c(N3c4ccccc4Oc4ccccc43)c(C)c2C)c2c(C)c(C)c(N3c4ccccc4Oc4ccccc43)c(C)c2C)c1C` gave an emission maximum (in CC(C)(C)c1ccc(-n2c3ccc([Si](c4ccccc4)(c4ccccc4)c4ccccc4)cc3c3cc([Si](c4ccccc4)(c4ccccc4)c4ccccc4)ccc32)cc1) of 484 nm.

Molecule `COC(=O)c1noc(-c2ccccc2)c1Cl` showed an emission maximum (in C1CCCCC1) of 344 nm.

Under “in CCO”, `CN1c2cc3nc4cc(Cl)c(Cl)cc4nc3cc2N(C)C1(C)C` yielded an emission maximum of 497 nm.

Take `CC1(C)CC(=O)c2c(F)c(F)cc(F)c2N1`: the emission maximum is 459 nm (in CC#N) and 499 nm (in CCO).

The molecule `CC1(C)c2ccccc2N(c2ccc(B3c4ccccc4Oc4ccccc43)cc2)c2ccccc21` had an emission maximum (in Cc1ccccc1) of 472 nm.

These data come from the Deep4Chem optical property database.
